Data reported in DBAASP.
≈ marks a conversion by molar mass, not a printed value.

Legend:
Assay in all cases: ≥ marks a high value that may be exact or a test limit, other limits are often not marked, values filed in µg/mL are converted to µM
[1] = test system: Acinetobacter baumannii Ab11
[2] = test system: Acinetobacter baumannii CR17
[3] = test system: Acinetobacter baumannii CR86
[4] = test system: Acinetobacter baumannii AYE
Bacillus subtilis = test system: Bacillus subtilis
Staphylococcus aureus = test system: Staphylococcus aureus
[5] = test system: Pseudomonas aeruginosa NCTC 13437
[6] = test system: Escherichia coli NCTC 12923
[7] = test system: Staphylococcus aureus ATCC 9144
Klebsiella pneumoniae M6 = test system: Klebsiella pneumoniae M6
Escherichia coli LEC001 = test system: Escherichia coli LEC001
[8] = test system: Staphylococcus aureus USA 300
[9] = test system: Candida glabrata NCPF 8018
[10] = test system: Candida parapsilosis NCPF 3209
Candida krusei NCPF 3876 = test system: Candida krusei NCPF 3876
[11] = test system: Acinetobacter baumannii ATCC 17978
[12] = test system: Klebsiella pneumoniae NCTC 13368
[13] = test system: Candida tropicalis NCPF 8760
[14] = test system: Staphylococcus aureus ATCC 25923
[15] = test system: Pseudomonas aeruginosa PAO1
[16] = test system: Staphylococcus aureus NCTC 13616
[17] = test system: Escherichia coli ATCC 25922
[18] = test system: Escherichia coli ATCC 25726
[19] = test system: Candida albicans ATCC 90028
[20] = test system: Batrachochytrium dendrobatidis JEL-197
[21] = test system: Escherichia coli CIB 84492
[22] = test system: Candida albicans CIB 45437
[23] = test system: Staphylococcus aureus CIB 85462
Escherichia coli BL21 = test system: Escherichia coli BL21
[24] = test system: Klebsiella pneumoniae KpC+001825971
[25] = test system: Klebsiella pneumoniae ATCC 13883
[26] = test system: Escherichia coli ATCC 11303
[27] = test system: Staphylococcus aureus ATCC 259230
[28] = test system: Escherichia coli KpC+001812446
[29] = test system: Staphylococcus aureus ATCC 6538P
[30] = test system: Staphylococcus epidermidis
[31] = test system: Staphylococcus aureus ATCC BAA-41
Enterococcus sp. S13 = test system: Enterococcus sp. S13
[32] = test system: Salmonella enterica AB2010185
Pseudomonas putida = test system: Pseudomonas putida
[33] = test system: Micrococcus luteus AB2010179
[34] = test system: Enterobacter cloacae AB2010162
[35] = test system: Bacillus magaterium AB90008
[36] = test system: Escherichia coli DH5alpha
[37] = test system: Staphylococcus aureus 16472
[38] = test system: Candida tropicalis AY91009
[39] = test system: Staphylococcus aureus AB94004
[40] = test system: Klebsiella oxytoca AB2010143

Q: How did the MIC [1] turn out when CC[C@H](C)[C@H](NC(C)=O)C(=O)N[C@@H](CC(N)=O)C(=O)N[C@@H](CC(C)C)C(=O)N[C@@H](CCCCN)C(=O)N[C@@H](C)C(=O)N[C@@H](CC(C)C)C(=O)N[C@@H](C)C(=O)N[C@@H](C)C(=O)N[C@@H](CC(C)C)C(=O)N[C@@H](C)C(=O)N[C@@H](CCCCN)C(=O)N[C@@H](CCCCN)C(=O)N[C@H](C(=O)N[C@@H](CC(C)C)C(N)=O)[C@@H](C)CC [INLKALAALAKKIL] was run?
A: Its MIC is no less than 42 µM.

Q: And the MIC [2]?
A: Its MIC is 10.5 µM (≈ 16 µg/mL).

Q: And the MIC [3]?
A: Its MIC is 21 µM (≈ 31.9 µg/mL).

Q: For CC[C@H](C)[C@H](NC(=O)[C@@H](N)CCCCN)C(=O)N[C@@H](C)C(=O)N[C@@H](CCCCN)C(=O)N[C@H](C(=O)N[C@@H](C)C(=O)N[C@@H](CC(C)C)C(=O)N[C@@H](CCCCN)C(=O)N[C@@H](C)C(=O)N[C@@H](CC(C)C)C(N)=O)C(C)C [KIAKVALKAL], which MIC [4] is on record?
A: Its MIC is no less than 121 µM.

Q: What about the MIC (Bacillus subtilis) of the same compound?
A: The MIC was 13.7 µM (≈ 14.4 µg/mL).

Q: And the MIC (Staphylococcus aureus)?
A: Its MIC is 64.3 µM (≈ 67.7 µg/mL).

Q: And the MIC [5]?
A: The MIC was no less than 121 µM.

Q: What about the MIC [6] of the same compound?
A: The MIC was no less than 121 µM.

Q: What about the MIC [7] of the same compound?
A: Its MIC is no less than 121 µM.

Q: And the MIC (Klebsiella pneumoniae M6)?
A: The MIC was no less than 121 µM.

Q: What about the MIC (Escherichia coli LEC001) of the same compound?
A: Its MIC is no less than 121 µM.

Q: What about the MIC [8] of the same compound?
A: Its MIC is no less than 121 µM.

Q: What about the MIC [9] of the same compound?
A: The MIC was no less than 121 µM.

Q: What about the MIC [10] of the same compound?
A: Its MIC is no less than 121 µM.

Q: What about the MIC (Candida krusei NCPF 3876) of the same compound?
A: Its MIC is no less than 121 µM.

Q: What about the MIC [11] of the same compound?
A: Its MIC is no less than 121 µM.

Q: And the MIC [12]?
A: Its MIC is no less than 121 µM.

Q: What about the MIC [13] of the same compound?
A: The MIC was no less than 121 µM.

Q: What about the MIC [14] of the same compound?
A: The MIC was 8.25 µM (≈ 8.69 µg/mL).

Q: And the MIC [15]?
A: Its MIC is greater than 121 µM.

Q: What about the MIC [16] of the same compound?
A: The MIC was no less than 121 µM.

Q: What about the MIC [17] of the same compound?
A: The MIC was 22.4 µM (≈ 23.6 µg/mL).

Q: For CC[C@H](C)[C@H](NC(=O)[C@H](Cc1ccccc1)NC(=O)[C@H](CCCCN)NC(=O)[C@H](CCCCN)NC(=O)[C@H](C)NC(=O)[C@H](CC(C)C)NC(=O)[C@H](CC(N)=O)NC(=O)[C@@H](NC(=O)[C@H](CC(C)C)NC(=O)[C@@H](NC(=O)[C@H](CC(=O)O)NC(=O)[C@H](CC(C)C)NC(=O)[C@H](Cc1ccccc1)NC(=O)[C@@H](N)CC(N)=O)[C@@H](C)O)[C@@H](C)CC)C(N)=O [NFLDTLINLAKKFI], which MIC [18] is on record?
A: Its MIC is no less than 100 µM.

Q: What about the MIC [19] of the same compound?
A: Its MIC is no less than 50 µM.

Q: And the MIC [20]?
A: Its MIC is 25 µM (≈ 41.2 µg/mL).

Q: What about the MIC [14] of the same compound?
A: Its MIC is 50 µM (≈ 82.5 µg/mL).

Q: Which results are given for CC[C@H](C)[C@H](NC(=O)CN)C(=O)N[C@@H](Cc1ccccc1)C(=O)NCC(=O)N[C@@H](CCCCN)C(=O)N[C@H](C(=O)N[C@@H](CC(C)C)C(=O)NCC(=O)N[C@@H](C)C(=O)NCC(=O)N[C@@H](CCCCN)C(=O)N[C@@H](CCCCN)C(=O)N[C@H](C(=O)N[C@@H](CC(C)C)C(=O)N[C@H]1CSSC[C@@H](C(=O)O)NC(=O)[C@H](CC(C)C)NC(=O)CNC(=O)[C@H](CO)NC(=O)[C@H](CC(C)C)NC(=O)CNC1=O)C(C)C)[C@@H](C)CC [GIFGKILGAGKKVLCGLSGLC]?
A: MIC [21]: 15.7 µM (≈ 32 µg/mL); MIC [22]: ≥ 62.9 µM; MIC [14]: 15.7 µM (≈ 32 µg/mL); MIC [23]: 7.86 µM (≈ 16 µg/mL); MIC [17]: 15.7 µM (≈ 32 µg/mL)

Q: What does the source list for CC[C@H](C)[C@H](NC(=O)[C@H](CCCCN)NC(=O)[C@H](CCCCN)NC(=O)[C@H](Cc1ccccc1)NC(=O)[C@H](CC(C)C)NC(=O)[C@H](CCCCN)NC(=O)[C@H](Cc1c[nH]c2ccccc12)NC(=O)[C@@H](N)CCCCN)C(=O)NCC(=O)N[C@@H](C)C(=O)N[C@H](C(=O)N[C@@H](CC(C)C)C(=O)N[C@@H](CCCCN)C(=O)N[C@H](C(=O)N[C@@H](CC(C)C)C(=O)O)C(C)C)C(C)C [KWKLFKKIGAVLKVL]?
A: MIC (Escherichia coli BL21): 0.707 µM (≈ 1.25 µg/mL); MIC [24]: 9 µM (≈ 15.9 µg/mL); MIC [25]: ≥ 36 µM; MIC [26]: ≥ 50 µM; MIC [27]: ≥ 50 µM; MIC [28]: 5 µM (≈ 8.86 µg/mL); MIC [29]: 1 µM (≈ 1.77 µg/mL); MIC [15]: 2.83 µM (≈ 5.01 µg/mL); MIC [30]: 0.707 µM (≈ 1.25 µg/mL); MIC [31]: 1.41 µM (≈ 2.5 µg/mL); MIC [17]: 5 µM (≈ 8.86 µg/mL)

Q: For CC[C@H](C)[C@H](NC(=O)CNC(=O)[C@H](CC(N)=O)NC(=O)[C@H](Cc1c[nH]c2ccccc12)NC(=O)[C@@H](NC(=O)[C@@H](NC(=O)[C@H](CO)NC(=O)[C@H](CC(C)C)NC(=O)[C@@H](N)Cc1ccccc1)[C@@H](C)O)[C@@H](C)CC)C(=O)N[C@@H](CCCCN)C(=O)N[C@@H](CO)C(=O)N[C@@H](CC(C)C)C(=O)N[C@@H](CC(C)C)C(=O)O [FLSTIWNGIKSLL], which MIC (Enterococcus sp. S13) is on record?
A: The MIC was 4 µM (≈ 5.97 µg/mL).

Q: What about the MIC [32] of the same compound?
A: Its MIC is no less than 84 µM.

Q: What about the MIC (Pseudomonas putida) of the same compound?
A: The MIC was no less than 87 µM.

Q: What about the MIC [33] of the same compound?
A: The MIC was 8 µM (≈ 11.9 µg/mL).

Q: And the MIC [34]?
A: The MIC was no less than 87 µM.

Q: And the MIC [35]?
A: Its MIC is 6 µM (≈ 8.95 µg/mL).

Q: What about the MIC [36] of the same compound?
A: The MIC was no less than 36 µM.

Q: What about the MIC [37] of the same compound?
A: Its MIC is 12 µM (≈ 17.9 µg/mL).

Q: And the MIC [38]?
A: Its MIC is 17 µM (≈ 25.4 µg/mL).

Q: What about the MIC [39] of the same compound?
A: Its MIC is 16 µM (≈ 23.9 µg/mL).

Q: What about the MIC [40] of the same compound?
A: Its MIC is no less than 87 µM.
